Experimental data taken from patent US10766879B2, “Pyrimidine derivatives as kinase inhibitors and their therapeutical applications” (NantBioScience, Inc., priority 2015, dated 2020).

Assays:
KDR kinase = target: T1, KDR kinase (Homo sapiens, UniProt P35968); test: KinaseProfiler kinase inhibition assay, KDR; format: biochemical; conditions: 1 μM compound
T1 construct: purchased Millipore (KinaseProfiler Service)

Tie2 = target: T2, Tie2 (Homo sapiens, UniProt Q02763); test: KinaseProfiler kinase inhibition assay, Tie2; format: biochemical; conditions: 1 μM compound
T2 construct: purchased Millipore (KinaseProfiler Service)

Alk kinase = target: T3, Alk kinase (Homo sapiens, UniProt Q9UM73); test: KinaseProfiler kinase inhibition assay, Alk; format: biochemical; conditions: 1 μM compound
T3 construct: purchased Millipore (KinaseProfiler Service)

KG1a = test: CellTiterblue viability, 72 hr, KG1a; format: cell-based; conditions: Homo sapiens, KG-1a, KG1a cells
Method: (§1) A number of studies were performed to analyze the consequences of tyrosine kinase inhibition in cell lines. To do this, 1000 cells are seeded in 27 μl/well in 384-well microplates, which are then placed in a humidified CO2 incubator at 37° C. overnight. The next day, 3 μl/well of 10× concentrated drug is added and the plates are returned to the incubator for 72 hr. After 72 hr incubation, plates are removed and […] CellTiterblue (Promega) viability reagent is added. Plates are returned to the incubator for 3 hr, after which it is fluorescence measurements are read on the Victor X3 plate reader (Perkin Elmer). Data are analyzed using Excel (Microsoft), and GI50 values are determined using Prism (Graphpad).

AN3_CA = test: CellTiterblue viability, 72 hr, AN3_CA; format: cell-based; conditions: Homo sapiens, AN3-CA, AN3_CA cells
Method: as §1

Ret kinase = target: T4, Ret kinase (Homo sapiens, UniProt P07949); test: KinaseProfiler kinase inhibition assay, Ret; format: biochemical; conditions: 1 μM compound
T4 construct: purchased Millipore (KinaseProfiler Service)

FGFR1 kinase = target: T5, FGFR1 kinase (Homo sapiens, UniProt P11362); test: KinaseProfiler kinase inhibition assay, FGFR1; format: biochemical; conditions: 1 μM compound
T5 construct: purchased Millipore (KinaseProfiler Service)

Abl kinase = target: T6, Abl kinase (Homo sapiens, UniProt P00519); test: KinaseProfiler kinase inhibition assay, Abl; format: biochemical; conditions: 1 μM compound
T6 construct: purchased Millipore (KinaseProfiler Service)

phospho-FGFR2 = target: T7, phospho-FGFR2 (Homo sapiens, UniProt P21802); test: phospho-FGFR ELISA on Kato III cells; format: cell-based; conditions: read-out: EC50 (nM) P-FGFR2, Kato III cells
T7 construct: endogenous in cells; host or cells: Kato III cells
Method: For the phospho-FGFR, the following assay Protocol was used. 25,000 cells are seeded in 90 μl/well in 96-well microplates, which are then placed in a humidified CO2 incubator at 37° C. overnight. 96-well ELISA plates (Mesoscale Discovery) are coated with capture antibody (R&D Systems Duo-Set) at 4 μg/ml, 30 μl/well. The next day, 10 μl/well of 10× concentrated drug is added and the plates are returned to the incubator for […]. ELISA plates are washed using an automated plate washer (BioTek Instruments). After 30 min, cells are inverted and gently tapped to remove excess medium, and immediately placed on ice. 30 μl mPer cell lysis reagent (Thermo Scientific) with protease and phosphatase inhibitors is added/well. After 15 min on ice, lysates are mixed and 30 μl transferred to the ELISA plate. Plates are incubated for 2 hr, washed, and 30 μl/well detection antibody is added. After 1 hr, plates are washed and 30 μl “SulfoTag” (MesoScale Discovery) detection reagent is added. After 1 hr, plates are washed and 150 μl/well read solution is added. Electrochemiluminescence is determined on the Mesoscale Discovery Sector Imager 2000. Data are analyzed using Excel (Microsoft), and EC50 values are determined using Prism (Graphpad).

RT112 = test: CellTiterblue viability, 72 hr, RT112; format: cell-based; conditions: Homo sapiens, RT-112, RT112 cells
Method: as §1

c-Src kinase = target: T8, c-Src kinase (Homo sapiens, UniProt P12931); test: KinaseProfiler kinase inhibition assay, c-Src; format: biochemical; conditions: 1 μM compound; read-out: % Inhibition @1 μM cSrc
T8 construct: purchased Millipore (KinaseProfiler Service)

Kato III = test: CellTiterblue viability, 72 hr, Kato III; format: cell-based; conditions: Homo sapiens, Kato III cells
Method: as §1

MDA-MB134 = test: CellTiterblue viability, 72 hr, MDA-MB134; format: cell-based; conditions: MDA-MB134 cells
Method: as §1

T2 sequence (Q02763 23-1124): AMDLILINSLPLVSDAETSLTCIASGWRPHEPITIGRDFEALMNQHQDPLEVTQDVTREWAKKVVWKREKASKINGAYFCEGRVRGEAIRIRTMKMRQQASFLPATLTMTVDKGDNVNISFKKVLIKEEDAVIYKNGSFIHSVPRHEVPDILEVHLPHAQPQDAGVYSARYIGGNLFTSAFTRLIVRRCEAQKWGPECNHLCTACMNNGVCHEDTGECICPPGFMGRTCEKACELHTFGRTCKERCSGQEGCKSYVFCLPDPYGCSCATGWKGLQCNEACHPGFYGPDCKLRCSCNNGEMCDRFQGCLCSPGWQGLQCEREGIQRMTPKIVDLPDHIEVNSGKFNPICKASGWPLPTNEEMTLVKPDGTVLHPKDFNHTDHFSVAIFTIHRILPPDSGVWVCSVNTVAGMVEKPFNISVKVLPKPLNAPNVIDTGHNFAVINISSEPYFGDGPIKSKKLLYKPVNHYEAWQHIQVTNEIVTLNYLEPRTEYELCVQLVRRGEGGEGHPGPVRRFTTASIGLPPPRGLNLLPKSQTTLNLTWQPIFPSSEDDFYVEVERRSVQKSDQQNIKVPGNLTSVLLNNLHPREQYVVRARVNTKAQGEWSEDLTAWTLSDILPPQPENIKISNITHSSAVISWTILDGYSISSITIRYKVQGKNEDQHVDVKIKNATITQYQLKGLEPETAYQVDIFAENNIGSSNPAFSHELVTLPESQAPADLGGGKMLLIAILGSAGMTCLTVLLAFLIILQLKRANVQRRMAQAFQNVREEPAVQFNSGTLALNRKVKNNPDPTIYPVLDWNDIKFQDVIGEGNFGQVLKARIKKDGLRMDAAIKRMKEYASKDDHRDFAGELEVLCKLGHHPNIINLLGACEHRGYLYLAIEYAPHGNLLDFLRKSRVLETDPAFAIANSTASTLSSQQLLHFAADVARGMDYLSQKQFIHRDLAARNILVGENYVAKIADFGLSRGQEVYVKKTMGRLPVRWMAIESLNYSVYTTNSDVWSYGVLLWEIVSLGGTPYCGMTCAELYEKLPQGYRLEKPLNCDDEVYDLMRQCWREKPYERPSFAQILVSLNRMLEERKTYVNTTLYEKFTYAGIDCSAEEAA
T6 sequence (P00519 whole entry): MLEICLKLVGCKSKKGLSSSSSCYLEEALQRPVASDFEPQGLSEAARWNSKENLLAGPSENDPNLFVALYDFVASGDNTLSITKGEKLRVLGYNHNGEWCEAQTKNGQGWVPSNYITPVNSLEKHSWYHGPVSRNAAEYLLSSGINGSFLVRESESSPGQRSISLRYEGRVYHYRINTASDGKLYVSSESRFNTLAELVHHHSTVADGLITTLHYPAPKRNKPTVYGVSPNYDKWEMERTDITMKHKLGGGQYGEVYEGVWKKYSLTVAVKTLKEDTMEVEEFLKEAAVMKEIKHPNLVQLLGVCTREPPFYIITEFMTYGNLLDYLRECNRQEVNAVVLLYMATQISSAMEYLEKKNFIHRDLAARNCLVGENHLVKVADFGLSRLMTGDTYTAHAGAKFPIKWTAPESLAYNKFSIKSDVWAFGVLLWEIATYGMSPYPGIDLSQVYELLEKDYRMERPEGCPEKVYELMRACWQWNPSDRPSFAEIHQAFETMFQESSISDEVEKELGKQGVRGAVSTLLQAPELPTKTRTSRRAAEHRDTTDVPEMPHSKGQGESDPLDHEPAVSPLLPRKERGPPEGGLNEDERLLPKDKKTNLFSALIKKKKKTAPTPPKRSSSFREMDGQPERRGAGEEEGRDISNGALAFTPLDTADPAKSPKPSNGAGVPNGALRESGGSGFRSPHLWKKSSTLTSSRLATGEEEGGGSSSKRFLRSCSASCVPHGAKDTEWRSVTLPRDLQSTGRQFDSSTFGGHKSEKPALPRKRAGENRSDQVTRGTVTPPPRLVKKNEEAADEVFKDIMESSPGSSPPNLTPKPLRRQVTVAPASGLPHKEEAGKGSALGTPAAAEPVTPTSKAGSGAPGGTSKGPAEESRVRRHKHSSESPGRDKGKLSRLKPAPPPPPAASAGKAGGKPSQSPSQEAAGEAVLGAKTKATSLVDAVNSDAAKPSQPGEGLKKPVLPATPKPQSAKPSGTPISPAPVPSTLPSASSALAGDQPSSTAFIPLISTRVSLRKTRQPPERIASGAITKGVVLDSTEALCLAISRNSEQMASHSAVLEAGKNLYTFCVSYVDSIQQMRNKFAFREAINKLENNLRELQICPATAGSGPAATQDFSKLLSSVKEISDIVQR
T1 sequence (P35968 20-1356): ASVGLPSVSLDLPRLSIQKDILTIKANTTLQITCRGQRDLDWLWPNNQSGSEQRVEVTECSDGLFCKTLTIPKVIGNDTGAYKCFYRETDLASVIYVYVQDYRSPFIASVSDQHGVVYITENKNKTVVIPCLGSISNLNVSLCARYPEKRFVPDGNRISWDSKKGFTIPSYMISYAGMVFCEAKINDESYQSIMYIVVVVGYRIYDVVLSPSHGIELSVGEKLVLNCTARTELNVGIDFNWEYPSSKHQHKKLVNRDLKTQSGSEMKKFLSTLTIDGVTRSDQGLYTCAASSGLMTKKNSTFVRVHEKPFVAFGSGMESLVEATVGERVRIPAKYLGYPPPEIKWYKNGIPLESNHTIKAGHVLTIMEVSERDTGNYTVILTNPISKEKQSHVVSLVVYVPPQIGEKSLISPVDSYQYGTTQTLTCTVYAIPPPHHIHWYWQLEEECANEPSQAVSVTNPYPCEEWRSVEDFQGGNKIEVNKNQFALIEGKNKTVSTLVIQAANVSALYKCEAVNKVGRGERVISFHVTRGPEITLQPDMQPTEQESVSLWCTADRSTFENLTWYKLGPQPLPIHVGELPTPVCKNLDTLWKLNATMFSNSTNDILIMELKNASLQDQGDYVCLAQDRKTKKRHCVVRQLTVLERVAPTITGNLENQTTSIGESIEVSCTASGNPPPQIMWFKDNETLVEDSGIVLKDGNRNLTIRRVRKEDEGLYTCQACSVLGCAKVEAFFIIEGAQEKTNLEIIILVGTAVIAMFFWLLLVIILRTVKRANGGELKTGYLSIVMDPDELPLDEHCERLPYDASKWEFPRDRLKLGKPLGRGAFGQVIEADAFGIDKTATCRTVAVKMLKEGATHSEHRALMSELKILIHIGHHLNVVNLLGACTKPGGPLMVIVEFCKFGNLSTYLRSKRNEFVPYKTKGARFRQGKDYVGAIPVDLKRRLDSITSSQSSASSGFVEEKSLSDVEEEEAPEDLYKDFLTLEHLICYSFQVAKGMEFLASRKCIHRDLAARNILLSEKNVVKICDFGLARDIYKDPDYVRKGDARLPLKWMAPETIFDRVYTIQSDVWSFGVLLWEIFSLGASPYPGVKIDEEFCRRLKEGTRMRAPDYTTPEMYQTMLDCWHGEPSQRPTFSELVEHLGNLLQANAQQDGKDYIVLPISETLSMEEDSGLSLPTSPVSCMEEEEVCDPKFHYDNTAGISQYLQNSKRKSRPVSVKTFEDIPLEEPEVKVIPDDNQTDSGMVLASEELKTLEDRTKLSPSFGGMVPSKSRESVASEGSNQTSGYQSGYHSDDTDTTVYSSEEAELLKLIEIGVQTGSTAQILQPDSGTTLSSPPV
T4 sequence (P07949 29-1114): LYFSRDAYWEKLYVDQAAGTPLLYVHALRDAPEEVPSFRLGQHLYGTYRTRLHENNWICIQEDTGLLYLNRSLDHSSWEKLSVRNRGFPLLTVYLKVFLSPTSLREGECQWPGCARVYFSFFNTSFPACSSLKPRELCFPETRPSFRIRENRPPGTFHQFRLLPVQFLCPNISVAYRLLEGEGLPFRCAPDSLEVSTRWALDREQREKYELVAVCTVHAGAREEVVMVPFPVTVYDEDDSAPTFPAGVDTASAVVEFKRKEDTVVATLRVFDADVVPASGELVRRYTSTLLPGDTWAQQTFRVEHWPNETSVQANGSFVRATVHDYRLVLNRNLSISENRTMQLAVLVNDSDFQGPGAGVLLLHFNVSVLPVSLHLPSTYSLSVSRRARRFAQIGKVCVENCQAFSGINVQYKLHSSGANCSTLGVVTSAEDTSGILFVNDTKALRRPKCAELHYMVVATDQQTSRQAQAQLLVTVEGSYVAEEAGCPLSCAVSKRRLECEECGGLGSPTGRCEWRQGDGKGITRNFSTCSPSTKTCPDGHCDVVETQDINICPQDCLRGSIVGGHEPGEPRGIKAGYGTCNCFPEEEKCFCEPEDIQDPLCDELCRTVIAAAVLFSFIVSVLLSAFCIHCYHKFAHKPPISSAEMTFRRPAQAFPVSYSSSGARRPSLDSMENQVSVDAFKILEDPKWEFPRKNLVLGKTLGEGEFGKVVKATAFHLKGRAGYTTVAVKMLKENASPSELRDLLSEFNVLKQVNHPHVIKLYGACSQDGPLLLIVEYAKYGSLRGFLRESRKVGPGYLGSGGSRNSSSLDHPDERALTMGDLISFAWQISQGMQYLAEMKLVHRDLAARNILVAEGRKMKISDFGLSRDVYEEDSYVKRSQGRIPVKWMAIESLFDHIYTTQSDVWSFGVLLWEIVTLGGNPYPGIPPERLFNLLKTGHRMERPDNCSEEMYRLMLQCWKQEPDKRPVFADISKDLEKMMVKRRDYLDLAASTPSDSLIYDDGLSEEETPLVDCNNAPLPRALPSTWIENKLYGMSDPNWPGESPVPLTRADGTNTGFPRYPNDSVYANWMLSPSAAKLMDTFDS

Compound	inhibition at 1 µM (KDR kinase) [%]	inhibition at 1 µM (Tie2) [%]	inhibition at 1 µM (Alk kinase) [%]	inhibition at 1 µM (Ret kinase) [%]	inhibition at 1 µM (FGFR1 kinase) [%]	inhibition at 1 µM (Abl kinase) [%]	EC50 (phospho-FGFR2) [nM]	inhibition at 1 µM (c-Src kinase) [%]	GI50 (MDA-MB134) [nM]	GI50 (KG1a) [nM]	GI50 (AN3_CA) [nM]	GI50 (RT112) [nM]	GI50 (Kato III) [nM]
CCN1CCN(c2ccc(Nc3cc(Oc4cc(F)c5[nH]c(C)cc5c4F)ncn3)cc2)CC1 [Compound 49]	96	69	69	53	99	68	75	74	56	60	> 500	> 500	207
Cc1cc2c(F)c(Oc3ncnc(Nc4ccc(N5CCN(C)CC5)cn4)c3Cl)ccc2[nH]1 [Compound 34, 5-chloro-6-((4-fluoro-2-methyl-1H-indol-5-yl)oxy)-N-(5-(4-methylpiperazin-1-yl)pyridin-2-yl)pyrimidin-4-amine]	96	18	15	25	98	19	> 100	9		> 100	> 500	> 100	229
Cc1cc2c(F)c(Oc3cc(Nc4ccc(N5CCNCC5)cc4)ncn3)cc(F)c2[nH]1 [Compound 51]	97	82	54	74	101	73	38	70		> 100	406	> 100	169
CCN1CCN(c2ccc(Nc3cc(Oc4ccc5[nH]c(C)cc5c4F)ncn3)cc2)CC1 [Example 3]	97	61	-2	75	102	47	93	46		> 100	> 500	> 100	
CCN1CCN(c2ccc(Nc3ncnc(Oc4ccc5[nH]c(C)cc5c4F)c3C#N)cc2)CC1 [Compound 53]	98	5	49	-25	100	11	18	10	5	10	> 500	> 500	34
Cc1cc2c(F)c(Oc3cc(Nc4ccc(N5CCN(C)CC5)cc4)ncn3)ccc2[nH]1 [Example 2]	97	58	3	75	102	45	88	47		> 100	490	> 100	165
COc1ccc(-c2cc(Nc3cc(Oc4ccc5[nH]c(C)cc5c4F)ncn3)n[nH]2)cc1OC [Example 5]	97	45	-10	77	93	63	> 100	65		> 100	211	> 100	> 500

More lines, main results first:

inhibition at 1 µM (KDR kinase) [%]	inhibition at 1 µM (Tie2) [%]	inhibition at 1 µM (Alk kinase) [%]	inhibition at 1 µM (Ret kinase) [%]	inhibition at 1 µM (FGFR1 kinase) [%]	inhibition at 1 µM (Abl kinase) [%]	EC50 (phospho-FGFR2) [nM]	inhibition at 1 µM (c-Src kinase) [%]	GI50 (MDA-MB134) [nM]	Compound	GI50 (KG1a) [nM]	GI50 (AN3_CA) [nM]	GI50 (RT112) [nM]	GI50 (Kato III) [nM]
88	47	3	78	92	36	> 100	24		Cc1cc2c(F)c(Oc3cc(Nc4cc(-c5ccco5)[nH]n4)ncn3)ccc2[nH]1 [Example 20]	> 100	> 500	> 100	
96	92	70	67	99	60	96	59		Cc1cc2c(F)c(Oc3cc(Nc4ccc(N5CCNCC5)cc4)ncn3)ccc2[nH]1 [Example 11]	> 100	> 500	> 100	> 500
90	75	2	79	92	64	> 100	54		Cc1cc2c(F)c(Oc3cc(Nc4cc(C5CC5)[nH]n4)ncn3)ccc2[nH]1 [Example 16]	> 100	> 500	> 100	
95	0	69	-11	96	7	> 100	11		CCN1CCN(c2ccc(Nc3ncnc(Oc4ccc5[nH]c(C)cc5c4F)c3F)cc2)CC1 [Example 25]	> 100	> 500	> 100	> 500
20	-12	40	-19	-4	13	> 100	8		Cc1cc2c(F)c(Oc3cc(N4CCN(c5ccc(N)cc5F)CC4)ncn3)ccc2[nH]1 [Example 10]	> 100	33	> 100	142
97	31	53	48	97	32	> 100	35		Cc1cc2c(F)c(Oc3cc(Nc4ccc(N5CCN(C)CC5)c(F)c4)ncn3)ccc2[nH]1 [Example 14]	> 100	483	> 100	> 500
97	59	6	78	95	62	> 100	47		Cc1cc2c(F)c(Oc3cc(Nc4cc(-c5ccccn5)[nH]n4)ncn3)ccc2[nH]1 [Example 6]	> 100	573	> 100	> 500
96	18	15	25	98	19	> 100	9		COc1cc(CCc2cc(Nc3cc(Oc4ccc5[nH]c(C)cc5c4F)ncn3)n[nH]2)cc(OC)c1 [Example 22]	> 100	> 500	> 100	229
97	82	32	79	100	84	36	78		Cc1cc2c(F)c(Oc3cc(Nc4ccc(N5CCN(C)CC5)cn4)ncn3)ccc2[nH]1 [Example 15]	> 100	332	> 100	290
90	37	2	73	95	42	> 100	21		C/C=C/c1cc(Nc2cc(Oc3ccc4[nH]c(C)cc4c3F)ncn2)n[nH]1 [Example 17]	> 100	> 500	> 100	
